Measured values published in paper PMC9315260, “Diarylamine-Guided Carboxamide Derivatives: Synthesis, Biological Evaluation, and Potential Mechanism of Action” (Frontiers in Chemistry, 2022).

Assays:
A875 cells [1] = assay: Annexin V-FITC/PI dual staining flow cytometry; assay type: cell-based, human; details: for apoptotic rate: 24 h, 2×IC50 concentration, FITC(+)PI(−); for apoptosis induction, in words: 24 h treatment
Experimental: Apoptosis induction is one of the important modes of action for antitumor drugs.
Quantitative analysis of apoptotic and necrotic cell death induced by potential molecules was investigated using Annexin V-FITC/PI dual staining assay ([Yu et al., 2015]; [Huang et al., 2021]).
Quantitative analysis of apoptotic and necrotic cell death induced by the test compounds was performed by Annexin V-FITC apoptosis detection kit according to the manufacturer’s instructions (Abcam). Briefly, 2×10^5 A875 cells were seeded in 6-well plates and grown overnight. […] Cells treated with 0.1% DMSO were served as solvent control. Following treatment cells were harvested, washed twice with ice-cold PBS and resuspended in binding buffer. Then the cells were stained by adding 5 µl of Annexin V-FITC and 5 µl of propidium iodide, sit for 5 min at room temperature in the dark and analyzed by flow cytometry (Beckman coulter FC500).

PAK3 = PAK3 (Homo sapiens, UniProt O75914); assay: ADP-GLO kinase inhibitory assay, PAK3; assay type: biochemical
Experimental: (§1) Based on the aforementioned results for the potential mechanism of action, the kinase inhibitory profile of compounds C6 and C11 were screened at two dose concentration of 10 and 1 µM over a panel of 15 kinases, and the kinase inhibitory activities are listed in supporting information (Supplementary Table S1).
(§2) The kinase inhibitory profile of compounds C6 and C11 were screened at two dose concentration of 10 and 1 µM over a panel of 15 kinases, and each assay was repeated twice. All the inhibitory assays were carried out through kinase profiling services provided by HY Biotech (Chinese), in which ADP-GLO kinase assays were used.
as §2, with “10 µM” for “10”

AKT3 = AKT3 (Homo sapiens, UniProt Q9Y243); assay: ADP-GLO kinase inhibitory assay, AKT3; assay type: biochemical
Experimental: as §1, §2
as §2, with “10 µM” for “10”

PLK1 = PLK1 (Homo sapiens, UniProt P53350); assay: ADP-GLO kinase inhibitory assay, PLK1; assay type: biochemical
Experimental: as §1, §2
as §2, with “10 µM” for “10”

PDK1 = biological target: T1, PDK1 (Homo sapiens, UniProt O15530); assay: ADP-GLO kinase inhibitory assay, PDK1; assay type: biochemical
T1 sequence (O15530 1-556): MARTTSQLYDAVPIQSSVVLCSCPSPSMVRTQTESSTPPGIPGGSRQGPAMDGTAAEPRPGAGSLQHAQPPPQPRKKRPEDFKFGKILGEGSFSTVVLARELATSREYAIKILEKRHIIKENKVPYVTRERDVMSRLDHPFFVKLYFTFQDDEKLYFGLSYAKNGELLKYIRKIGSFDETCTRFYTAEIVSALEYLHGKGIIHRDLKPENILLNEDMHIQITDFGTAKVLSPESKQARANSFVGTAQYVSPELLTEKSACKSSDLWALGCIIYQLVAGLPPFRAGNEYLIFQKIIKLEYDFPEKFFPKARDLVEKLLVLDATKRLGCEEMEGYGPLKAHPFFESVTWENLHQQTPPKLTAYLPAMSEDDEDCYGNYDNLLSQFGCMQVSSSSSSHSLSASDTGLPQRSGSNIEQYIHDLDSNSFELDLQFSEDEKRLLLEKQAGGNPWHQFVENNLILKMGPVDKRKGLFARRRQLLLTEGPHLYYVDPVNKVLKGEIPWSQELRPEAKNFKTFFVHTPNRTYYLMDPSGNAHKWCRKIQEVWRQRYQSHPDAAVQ
Experimental: as §1, §2
as §2, with “10 µM” for “10”

[2] = test system: A875 (human melanoma cell line); assay: MTT in vitro cytotoxicity assay, A875; assay type: cell-based; details: for IC50: A875, Table 3, MTT, mean ± S.D.; for inhibition at 100 µM: A875, at 100 µM, read-out: Cell growth inhibition (%) A875
Experimental: (§3) The lead molecules A2 and all newly prepared diarylamine derivatives B1-13 and C1-11 were evaluated for their in vitro cytotoxic effects against SGC-7901, A875, HepG2 and MARC145 cell lines by the classical MTT [3-(4,5-dimethylthiazol-2-yl)-2,5-diphenyl tetrazolium bromide] assay ([Alley et al., 1988]; [Ke et al., 2012]; [Shi et al., 2012]; [Yu et al., 2015]; [Ke et al., 2019]; [Xu et al., 2019]; [Huang et al., 2021]) using 5-FU (5-Fluorouracil) as a control.
(§4) The cytotoxicity of target compounds was determined with MTT assay ([Alley et al., 1988]; [Ke et al., 2012]; [Shi et al., 2012]; [Yu et al., 2015]; [Ke et al., 2019]; [Xu et al., 2019]; [Huang et al., 2021]). SGC-7901, A875, HepG2 and MARC145 cell lines were obtained from Hubei Biopesticide Engineering Research Centre. All data of the experiment were analyzed with SPSS software, and all assay were performed in triplicate on three independent experiments, and measurement data were expressed as the mean ± S.D.
(§5) The in vitro cytotoxicity of the synthesized compounds against different cell lines (SGC-7901, A875, HepG2 and MARC145) was measured with MTT assay. All the data of the experiment were analyzed with SPSS software, and the 50% inhibitory concentrations (IC50) of each compound for the different cell lines were determined. A control was run for each test, and all assays were performed in triplicate on three independent experiments, and measurement data were expressed as the mean ± S.D.

A875 cells [3] = assay: LDH release (cellular necrosis); assay type: cell-based, human; details: 24 h after treatment
Experimental: From the preliminary analysis of apoptosis, the results encourage us to further investigate the type of cell death induced by the potential compounds (C6 and C11). As we know, the release of LDH is a typical characteristic feature of necrotic cell death, and so which was detected.
A875 cells grown in 96-well plates were treated with serial dilutions of each tested compound for 24 h. The culture media were collected, and the concentrations of LDH were determined based on our previous research ([Huang et al., 2021]).
A875 cells grown in 96-well plates were treated with serial dilutions of each tested compound for 24 h. The culture media were collected, and the concentrations of LDH were determined with an LDH assay kit according to the manufacturer’s instructions (Abcam).

[4] = MTT in vitro cytotoxicity assay, MARC145; assay type: cell-based, African green monkey; details: African green monkey, MARC145 cells (kidney cell line, subclone of MA-104), Table 3; MTT; mean ± S.D.
Experimental: as §3, §4, §5

[5] = test system: MARC145 (subclone of African green monkey kidney cell line MA-104); assay: MTT in vitro cytotoxicity assay, MARC145; assay type: cell-based; details: at 100 µM; for inhibition at 100 µM: Chlorocebus sabaeus, MARC145, read-out: Cell growth inhibition (%) MARC145
Experimental: as §3, §4, §5

DAPK1 = DAPK1 (Homo sapiens, UniProt P53355); assay: ADP-GLO kinase inhibitory assay, DAPK1; assay type: biochemical
Experimental: as §1, §2
as §2, with “10 µM” for “10”

Chain of PAK3 (O75914 whole entry, species assumed): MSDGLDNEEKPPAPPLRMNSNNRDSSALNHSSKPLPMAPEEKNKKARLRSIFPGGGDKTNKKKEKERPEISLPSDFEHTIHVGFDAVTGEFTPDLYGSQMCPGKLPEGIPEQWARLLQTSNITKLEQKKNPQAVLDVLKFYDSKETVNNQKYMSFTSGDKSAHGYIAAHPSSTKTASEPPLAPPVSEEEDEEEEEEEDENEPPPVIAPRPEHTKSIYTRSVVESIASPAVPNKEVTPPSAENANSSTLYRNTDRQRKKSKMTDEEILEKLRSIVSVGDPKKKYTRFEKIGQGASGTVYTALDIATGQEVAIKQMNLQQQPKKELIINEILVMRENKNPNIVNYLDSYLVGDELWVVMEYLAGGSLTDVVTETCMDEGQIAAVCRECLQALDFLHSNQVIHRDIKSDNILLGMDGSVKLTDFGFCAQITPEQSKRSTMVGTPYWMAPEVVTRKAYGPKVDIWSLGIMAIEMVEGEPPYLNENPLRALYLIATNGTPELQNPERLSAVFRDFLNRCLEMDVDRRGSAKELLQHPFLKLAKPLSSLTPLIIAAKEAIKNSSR
Chain of PLK1 (P53350 whole entry, species assumed): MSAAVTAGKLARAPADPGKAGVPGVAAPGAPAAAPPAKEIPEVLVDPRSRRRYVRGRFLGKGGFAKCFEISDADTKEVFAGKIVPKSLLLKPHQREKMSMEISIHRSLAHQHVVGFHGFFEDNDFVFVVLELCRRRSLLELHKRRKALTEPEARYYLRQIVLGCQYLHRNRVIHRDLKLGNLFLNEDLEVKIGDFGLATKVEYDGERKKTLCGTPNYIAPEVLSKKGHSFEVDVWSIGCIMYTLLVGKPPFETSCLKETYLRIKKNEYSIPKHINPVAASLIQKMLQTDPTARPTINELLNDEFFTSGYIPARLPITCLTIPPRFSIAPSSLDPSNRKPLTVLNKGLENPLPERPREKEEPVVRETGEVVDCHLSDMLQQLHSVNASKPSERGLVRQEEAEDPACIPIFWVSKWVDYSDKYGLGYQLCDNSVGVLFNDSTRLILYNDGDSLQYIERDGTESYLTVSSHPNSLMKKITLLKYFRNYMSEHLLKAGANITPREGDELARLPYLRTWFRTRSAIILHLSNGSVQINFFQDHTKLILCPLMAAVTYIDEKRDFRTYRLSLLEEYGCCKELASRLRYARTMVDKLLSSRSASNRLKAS
Chain of DAPK1 (P53355 whole entry, species assumed): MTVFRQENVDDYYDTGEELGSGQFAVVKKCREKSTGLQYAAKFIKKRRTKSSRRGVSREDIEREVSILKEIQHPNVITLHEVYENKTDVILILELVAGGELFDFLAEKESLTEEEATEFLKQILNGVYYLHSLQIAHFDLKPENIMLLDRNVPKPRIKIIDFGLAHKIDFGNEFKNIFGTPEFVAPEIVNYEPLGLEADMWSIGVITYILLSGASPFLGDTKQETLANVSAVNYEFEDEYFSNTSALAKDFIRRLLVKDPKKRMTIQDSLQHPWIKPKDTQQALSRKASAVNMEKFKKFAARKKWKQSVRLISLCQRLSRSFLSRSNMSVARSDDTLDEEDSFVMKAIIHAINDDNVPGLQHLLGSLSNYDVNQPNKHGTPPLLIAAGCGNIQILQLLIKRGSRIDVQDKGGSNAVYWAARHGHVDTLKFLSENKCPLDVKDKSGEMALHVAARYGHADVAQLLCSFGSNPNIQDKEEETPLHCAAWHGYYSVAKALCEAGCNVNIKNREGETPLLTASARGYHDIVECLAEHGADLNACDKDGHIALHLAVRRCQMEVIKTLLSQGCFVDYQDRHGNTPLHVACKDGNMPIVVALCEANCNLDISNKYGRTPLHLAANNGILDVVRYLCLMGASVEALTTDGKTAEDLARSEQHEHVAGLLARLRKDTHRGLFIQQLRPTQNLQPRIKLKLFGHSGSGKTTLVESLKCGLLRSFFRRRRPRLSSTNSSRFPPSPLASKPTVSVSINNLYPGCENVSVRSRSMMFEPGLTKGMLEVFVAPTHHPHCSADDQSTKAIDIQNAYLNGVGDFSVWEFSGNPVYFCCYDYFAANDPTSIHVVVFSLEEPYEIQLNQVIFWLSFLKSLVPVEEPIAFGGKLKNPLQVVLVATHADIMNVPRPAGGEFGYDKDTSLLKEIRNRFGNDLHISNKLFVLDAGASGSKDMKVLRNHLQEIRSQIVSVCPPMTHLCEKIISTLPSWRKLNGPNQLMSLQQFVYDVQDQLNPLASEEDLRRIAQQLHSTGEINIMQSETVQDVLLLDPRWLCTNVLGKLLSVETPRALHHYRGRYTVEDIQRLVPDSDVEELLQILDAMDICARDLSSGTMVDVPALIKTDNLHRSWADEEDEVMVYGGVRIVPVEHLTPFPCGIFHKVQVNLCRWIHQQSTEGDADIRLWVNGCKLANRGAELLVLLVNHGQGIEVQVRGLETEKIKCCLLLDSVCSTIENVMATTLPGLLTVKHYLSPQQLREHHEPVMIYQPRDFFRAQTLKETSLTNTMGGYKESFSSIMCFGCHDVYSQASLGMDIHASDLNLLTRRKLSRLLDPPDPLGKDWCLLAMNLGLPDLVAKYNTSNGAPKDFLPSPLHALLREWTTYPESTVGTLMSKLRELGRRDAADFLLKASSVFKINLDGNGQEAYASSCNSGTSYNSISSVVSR
Chain of AKT3 (Q9Y243 whole entry, species assumed): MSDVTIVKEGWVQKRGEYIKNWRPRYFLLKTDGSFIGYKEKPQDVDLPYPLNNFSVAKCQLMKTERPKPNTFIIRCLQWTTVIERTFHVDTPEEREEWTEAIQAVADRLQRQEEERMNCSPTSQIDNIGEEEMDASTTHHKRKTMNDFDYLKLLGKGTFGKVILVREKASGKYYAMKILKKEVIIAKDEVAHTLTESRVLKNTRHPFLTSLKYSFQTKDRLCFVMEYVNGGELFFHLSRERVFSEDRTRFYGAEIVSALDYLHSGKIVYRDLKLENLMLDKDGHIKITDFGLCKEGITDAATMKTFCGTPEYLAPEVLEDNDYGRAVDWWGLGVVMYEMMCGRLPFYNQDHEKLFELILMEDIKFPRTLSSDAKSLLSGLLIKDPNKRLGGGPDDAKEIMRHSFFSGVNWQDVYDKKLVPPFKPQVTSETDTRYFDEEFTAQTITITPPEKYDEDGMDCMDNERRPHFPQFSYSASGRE

O=C(Nc1cccc(C(F)(F)F)c1)c1cccnc1Nc1cccc(C(F)(F)F)c1 [C6, N-(3-(Trifluoromethyl)phenyl)-2-((3-(trifluoromethyl)phenyl)amino)nicotinamide]
apoptotic rate (A875 cells [1]): 12% | apoptosis induction, in words (A875 cells [1]): induced apoptotic changes | inhibition at 1 µM (PAK3): 10.1% | inhibition at 10 µM (PAK3): 1.34% | inhibition at 1 µM (AKT3): 16.1% | inhibition at 10 µM (AKT3): -2.65% | inhibition at 1 µM (PLK1): 5.21% | inhibition at 10 µM (PLK1): -0.95% | inhibition at 1 µM (PDK1): 10.3% | inhibition at 10 µM (PDK1): 10.1% | IC50 [2]: 12.8 ± 1.99 µM | inhibition at 100 µM [2]: 91.5 ± 2.9% | release of LDH, in words (A875 cells [3]): significantly increased | IC50 [4]: 9.72 ± 2.75 µM | inhibition at 100 µM [5]: 89.8 ± 3.4% | inhibition at 1 µM (DAPK1): 8.48% | inhibition at 10 µM (DAPK1): -7.18%

O=C(Nc1ccc(Cl)nc1)c1cccnc1Nc1cccc(C(F)(F)F)c1 [C11, N-(6-Chloropyridin-3-yl)-2-((3-(trifluoromethyl)phenyl)amino)nicotinamide]
apoptotic rate (A875 cells [1]): 27% | apoptosis induction, in words (A875 cells [1]): induced apoptotic changes | inhibition at 1 µM (PAK3): 11.8% | inhibition at 10 µM (PAK3): 8.14% | inhibition at 1 µM (AKT3): 20.1% | inhibition at 10 µM (AKT3): -0.49% | inhibition at 1 µM (PLK1): 7.32% | inhibition at 10 µM (PLK1): 2.02% | inhibition at 1 µM (PDK1): 20.3% | inhibition at 10 µM (PDK1): 10.9% | IC50 [2]: 12.3 ± 4.16 µM | inhibition at 100 µM [2]: 90.5 ± 3.7% | release of LDH, in words (A875 cells [3]): significantly increased | IC50 [4]: > 102 µM | inhibition at 100 µM [5]: 27.1 ± 3.6% | inhibition on normal cell lines (MARC145), in words [5]: low inhibition | inhibition at 1 µM (DAPK1): -2.25% | inhibition at 10 µM (DAPK1): 6.49%
